Experiments:
[1] = Compound was tested for the inhibition of inducible murine macrophage nitric oxide(NO) synthase
[2] = Compound was tested for the inhibition of inducible murine macrophage expressed as inactivation constant
[3] = Compound was tested for the inhibition of inducible murine macrophage nitric oxide(NO) synthase, activity expressed as inhibitory constant

Ki [1] [µM]	K inact [2] [min⁻¹]	Ki [3] [µM]	SMILES
7.7			N=C(NCCC[C@H](N)C(=O)O)NC1CC1
	0.05	4.2	CNC(=N)NCCC[C@H](N)C(=O)O [TILARGININE]
2.1	0.026	3.4	C=CC/N=C(/N)NCCC[C@H](N)C(=O)O [5-N-ALLYL-ARGININE]
